Laboratory results taken from patent US20060247320A1, “Compounds for inhibiting KSP kinesin activity” (priority 2005, published 2006).

Test system: not given
Assay: not given
Conditions: not given

Question: Which melting point does the source give for `CCOC(=O)c1nc2cc3c(nc2s1)CCC(C(C)(C)C)C3` (racemic) here?
Answer: Its melting point is 84 to 86 °C.

Biological target: T1, KSP motor domain (Homo sapiens, UniProt P52732)
T1 sequence (P52732 18-359 limits assumed): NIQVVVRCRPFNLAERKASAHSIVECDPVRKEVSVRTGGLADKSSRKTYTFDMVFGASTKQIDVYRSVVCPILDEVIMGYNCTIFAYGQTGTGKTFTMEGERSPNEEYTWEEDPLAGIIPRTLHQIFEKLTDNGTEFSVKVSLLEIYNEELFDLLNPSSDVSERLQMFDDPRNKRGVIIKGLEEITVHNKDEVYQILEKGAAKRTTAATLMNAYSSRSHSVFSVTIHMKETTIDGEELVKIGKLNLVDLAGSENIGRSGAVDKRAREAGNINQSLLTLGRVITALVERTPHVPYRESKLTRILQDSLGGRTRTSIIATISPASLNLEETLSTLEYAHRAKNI
Assay: biochemical
Conditions: KSP inhibitory activity, end-point assay; class symbols (Table 1); read-out: IC50

Question: Which IC50 does the source give for `Cc1cc(C(=O)Nc2cccc([C@@H](CNCCO)NC(=O)c3cc4cc5c(nc4s3)CC[C@@H](C(C)(C)C)C5)c2)no1` [Example 266, 6(R)-tert-butyl-5,6,7,8-tetrahydro-thieno[2,3-b]quinoline-2-carboxylic acid (2-(2-hydroxy-ethylamino)-1(S)-{3-[(5-methyl-isoxazole-3-carbonyl)-amino]-phenyl}-ethyl)-amide] here?
Answer: The IC50 was under 100 nM.

Question: Which IC50 does the source give for `Cn1nccc1C(=O)Nc1cccc([C@@H](CNCCO)NC(=O)c2cc3cc4c(nc3s2)CC[C@@H](C(C)(C)C)C4)c1` [Example 267] here?
Answer: The IC50 was 100 to 1000 nM.

Question: Which IC50 does the source give for `Cn1ccc(C(=O)Nc2cccc([C@@H](CNCCO)NC(=O)c3cc4cc5c(nc4s3)CC[C@@H](C(C)(C)C)C5)c2)n1` [Example 268] here?
Answer: Its IC50 is under 100 nM.

Question: For `CC(C)(C)[C@@H]1CCc2nc3sc(C(=O)N[C@H](CN)c4ccc(NC(=O)c5cnccn5)cc4)cc3cc2C1` [Example 269, 6(R)-tert-Butyl-5,6,7,8-tetrahydro-thieno[2,3-b]quinoline-2-carboxylic acid (2-amino-1(S)-{4-[(pyrazine-2-carbonyl)-amino]-phenyl}-ethyl)-amide], which IC50 is on record?
Answer: The IC50 was under 100 nM.

Question: With `CC(C)(C)[C@@H]1CCc2nc3sc(C(=O)N[C@H](CN)c4ccc(NC(=O)c5cscn5)cc4)cc3cc2C1` [Example 270] as the compound, how does the IC50 read?
Answer: The IC50 was under 100 nM.

Question: With `CC(C)(C)[C@@H]1CCc2nc3sc(C(=O)N[C@H](CN)c4ccc(NC(=O)c5cocn5)cc4)cc3cc2C1` [Example 271] as the compound, how does the IC50 read?
Answer: Its IC50 is under 100 nM.

Question: With `Cc1ncnc(C)c1C(=O)Nc1ccc([C@@H](CN)NC(=O)c2cc3cc4c(nc3s2)CC[C@@H](C(C)(C)C)C4)cc1` [Example 272] as the compound, how does the IC50 read?
Answer: Its IC50 is under 100 nM.

Question: Which IC50 does the source give for `CC(C)(C)[C@@H]1CCc2nc3sc(C(=O)N[C@H](CN)c4ccc(NC(=O)c5ccco5)cc4)cc3cc2C1` [Example 273, 6(R)-tert-Butyl-5,6,7,8-tetrahydro-thieno[2,3-b]quinoline-2-carboxylic acid (2-amino-1(S)-{4-[(furan-2-carbonyl)-amino]-phenyl}-ethyl)-amide] here?
Answer: Its IC50 is under 100 nM.

Question: For `Cc1cc(C(=O)Nc2ccc([C@@H](CN)NC(=O)c3cc4cc5c(nc4s3)CC[C@@H](C(C)(C)C)C5)cc2)no1` [Example 274], which IC50 is on record?
Answer: Its IC50 is under 100 nM.

Question: With `CN1CCN(C(=O)Nc2cccc([C@@H](CN)NC(=O)c3cc4cc5c(nc4s3)CC[C@@H](C(C)(C)C)C5)c2)CC1` [Example 275, 6(R)-tert-butyl-5,6,7,8-tetrahydro-thieno[2,3-b]quinoline-2-carboxylic acid (2-amino-1(S)-{3-[(4-methyl-piperazine-1-carbonyl)-amino]-phenyl}-ethyl)-amide] as the compound, how does the IC50 read?
Answer: The IC50 was under 100 nM.

Question: Which IC50 does the source give for `C[C@H]1CNCCN1C(=O)Nc1cccc([C@@H](CN)NC(=O)c2cc3cc4c(nc3s2)CC[C@@H](C(C)(C)C)C4)c1` [Example 276] here?
Answer: Its IC50 is under 100 nM.

Question: With `C[C@@H]1CNCCN1C(=O)Nc1cccc([C@@H](CN)NC(=O)c2cc3cc4c(nc3s2)CC[C@@H](C(C)(C)C)C4)c1` [Example 277] as the compound, how does the IC50 read?
Answer: Its IC50 is under 100 nM.

Question: With `C[C@@H]1CN[C@@H](C)CN1C(=O)Nc1cccc([C@@H](CN)NC(=O)c2cc3cc4c(nc3s2)CC[C@@H](C(C)(C)C)C4)c1` [Example 278] as the compound, how does the IC50 read?
Answer: The IC50 was 100 to 1000 nM.

Question: For `C[C@@H]1CN(C(=O)Nc2cccc([C@@H](CN)NC(=O)c3cc4cc5c(nc4s3)CC[C@@H](C(C)(C)C)C5)c2)C[C@H](C)N1` [Example 279], which IC50 is on record?
Answer: Its IC50 is under 100 nM.

Question: Which IC50 does the source give for `C[C@H]1CN(C(=O)Nc2cccc([C@@H](CN)NC(=O)c3cc4cc5c(nc4s3)CC[C@@H](C(C)(C)C)C5)c2)CCN1` [Example 280] here?
Answer: The IC50 was 100 to 1000 nM.

Question: With `CC(C)(C)[C@@H]1CCc2nc3sc(C(=O)N[C@H](CN)c4cccc(NCc5ccncc5)c4)cc3cc2C1` [Example 281, 6(R)-tert-Butyl-5,6,7,8,-tetrahydro-thieno[2,3-b]quinoline-2-carboxylic acid (2(S)-amino-1-{3-[(pyridin-4-ylmethyl)-amino]-phenyl}-ethyl)-amide] as the compound, how does the IC50 read?
Answer: The IC50 was under 100 nM.

Question: For `CC(C)(C)[C@@H]1CCc2nc3sc(C(=O)N[C@H](CN)c4cccc(NCc5cccnc5)c4)cc3cc2C1` [Example 282], which IC50 is on record?
Answer: The IC50 was under 100 nM.

Question: Which IC50 does the source give for `CC(C)(C)[C@@H]1CCc2nc3sc(C(=O)N[C@H](CN)c4cccc(NCc5ccccc5)c4)cc3cc2C1` [Example 283] here?
Answer: Its IC50 is under 100 nM.

Question: With `CC(C)(C)C1CCc2nc3sc(C(=O)N[C@H](CN)c4ccsc4)cc3cc2C1` (stereo partly drawn) [Example 284, 6-tert-butyl-5,6,7,8-tetrahydro-thieno[2,3-b]quinoline-2-carboxylic acid (2-amino-1(S)-thiophen-3-yl-ethyl)-amide] as the compound, how does the IC50 read?
Answer: The IC50 was under 100 nM.

Same assay, conditions: exact IC50 values, end-point assay (Table 2); read-out: IC50

Question: For `CC(C)(C)[C@@H]1CCc2nc3sc(C(=O)N[C@H](CN)c4ccc(NC(=O)c5ccco5)cc4)cc3cc2C1` [Example 273, 6(R)-tert-Butyl-5,6,7,8-tetrahydro-thieno[2,3-b]quinoline-2-carboxylic acid (2-amino-1(S)-{4-[(furan-2-carbonyl)-amino]-phenyl}-ethyl)-amide], which IC50 is on record?
Answer: The IC50 was 17 nM.

Question: For `C[C@@H]1CNCCN1C(=O)Nc1cccc([C@@H](CN)NC(=O)c2cc3cc4c(nc3s2)CC[C@@H](C(C)(C)C)C4)c1` [Example 277], which IC50 is on record?
Answer: The IC50 was 10 nM.

Question: Which IC50 does the source give for `CC(C)(C)C1CCc2nc3sc(C(=O)N[C@H](CN)c4ccsc4)cc3cc2C1` (stereo partly drawn) [Example 284, 6-tert-butyl-5,6,7,8-tetrahydro-thieno[2,3-b]quinoline-2-carboxylic acid (2-amino-1(S)-thiophen-3-yl-ethyl)-amide] here?
Answer: The IC50 was 8 nM.
